From ChEMBL document CHEMBL1201862, “PubChem BioAssay data set” (2004)
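Values below derive from 48-hour exposures of cells grown in 96-well plates, with endpoints linearly interpolated between the two concentrations bracketing the appropriate inhibition level. Here, GI50 denotes the concentration required for 50% inhibition of growth.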 Active and inactive are the calls of the source. Cut-off read from the data, not from the text of the source: active = GI50 up to about 1.1 µM and inactive = higher.

Columns and labels:
Assay in all cases: inhibition of tumour cell growth, NCI panel, 48 h
UACC-62 = test system: UACC-62
786-0 = test system: 786-0
DLD-1 = test system: DLD-1
K562 = test system: K562
CAKI-1 = test system: CAKI-1
MDA-N = test system: MDA-N
LOX IMVI = test system: LOX IMVI
OVCAR-4 = test system: OVCAR-4
SN12C = test system: SN12C
MDA-MB-435 = test system: MDA-MB-435
SNB-75 = test system: SNB-75
HCT-15 = test system: HCT-15
RXF 393 = test system: RXF 393
HT-29 = test system: HT-29
MDA-MB-231 = test system: MDA-MB-231
SF-295 = test system: SF-295
NCI-H226 = test system: NCI-H226
BT-549 = test system: BT-549
MCF7 = test system: MCF7
HL-60 = test system: HL-60

For `Cc1cc2c(c3oc(C(O)(CO)C4CO4)cc(=O)c13)C(=O)c1c(O)cccc1C2=O` (stereo not given), the GI50 (UACC-62) was 1.19 nM (active), the GI50 (786-0) was 0.439 nM (active) and the GI50 (DLD-1) was < 10 nM (active). For the same compound, the GI50 (K562) was 0.982 nM (active), the GI50 (CAKI-1) was 0.463 nM (active) and the GI50 (MDA-N) was 1.31 nM (active). For the same compound, the GI50 (LOX IMVI) was 0.356 nM (active), the GI50 (OVCAR-4) was 1.58 nM (active) and the GI50 (SN12C) was 0.674 nM (active). For the same compound, the GI50 (MDA-MB-435) was 1.21 nM (active), the GI50 (SNB-75) was 1.22 nM (active) and the GI50 (HCT-15) was 0.887 nM. The GI50 (RXF 393) was 1.25 nM (active), the GI50 (HT-29) was 1.04 nM (active) and the GI50 (MDA-MB-231) was 2.13 nM (active). The GI50 (SF-295) was 1.39 nM (active), the GI50 (NCI-H226) was 2.37 nM (active) and the GI50 (BT-549) was 2.96 nM (active). The GI50 (MCF7) was 0.435 nM (active) and the GI50 (HL-60) was 0.377 nM (active).
